Assays:
K562 = assay: Antiproliferative activity against human K562 cells after 72 hrs by MTS assay; assay type: functional, cell-based; conditions: K562, 72 h
[1] = target: Inosine-5'-monophosphate dehydrogenase 1 (Homo sapiens, UniProt P20839); assay: Inhibition of human IMPDH1 by Spectrophotometry
Chain of Inosine-5'-monophosphate dehydrogenase 1 (P20839 whole entry): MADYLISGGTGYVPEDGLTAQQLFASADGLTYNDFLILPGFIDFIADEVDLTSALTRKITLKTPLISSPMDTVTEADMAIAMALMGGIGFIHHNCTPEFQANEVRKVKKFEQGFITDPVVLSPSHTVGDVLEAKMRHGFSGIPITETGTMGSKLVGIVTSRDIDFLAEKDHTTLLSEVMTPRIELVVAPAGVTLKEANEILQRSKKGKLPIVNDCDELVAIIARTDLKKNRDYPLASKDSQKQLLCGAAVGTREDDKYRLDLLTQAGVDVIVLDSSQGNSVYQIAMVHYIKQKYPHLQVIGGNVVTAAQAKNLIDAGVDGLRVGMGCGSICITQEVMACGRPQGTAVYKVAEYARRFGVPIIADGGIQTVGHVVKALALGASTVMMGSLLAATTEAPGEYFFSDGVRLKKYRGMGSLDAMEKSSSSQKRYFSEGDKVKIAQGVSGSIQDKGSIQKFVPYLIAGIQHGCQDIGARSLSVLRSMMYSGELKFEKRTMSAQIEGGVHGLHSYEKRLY

## NC(=O)c1csc([C@@H]2O[C@H](COP(=O)(O)CC(=O)NC[C@@H]3O[C@H](n4cnc5c(N)ncnc54)[C@@H](O)[C@H]3O)[C@@H](O)[C@H]2O)n1
K562
  IC50: > 100 µM
[1]
  Ki: 14.2 µM

## CCc1nc(N)c2ncn([C@H]3O[C@@H](COP(=O)(O)C(F)(F)P(=O)(O)OC[C@H]4O[C@@H](c5nc(C(N)=O)cs5)[C@H](O)[C@@H]4O)[C@H](O)[C@@H]3O)c2n1
K562
  IC50: 4.7 µM
[1]
  Ki: 0.013 µM

## COc1c(C)c2c(c(O)c1CCOP(=O)(O)CCP(=O)(O)O)C(=O)OC2 [MYCOPHENOLIC ETHYLENEBIS]
K562
  IC50: > 100 µM
[1]
  Ki: 5.55 µM

## NC(=O)c1csc([C@@H]2O[C@H](CNS(=O)(=O)CS(=O)(=O)NC[C@@H]3O[C@H](n4cnc5c(N)ncnc54)[C@@H](O)[C@H]3O)[C@@H](O)[C@H]2O)n1
K562
  IC50: > 100 µM
[1]
  Ki: 23.6 µM

## CCc1nc(N)c2ncn([C@H]3O[C@@H](COP(=O)(O)OP(=O)(O)OC[C@H]4O[C@@H](c5nc(C(N)=O)cs5)[C@H](O)[C@@H]4O)[C@H](O)[C@@H]3O)c2n1
[1]
  Ki: 0.001 µM

From ChEMBL document CHEMBL1681750, “Cofactor-type inhibitors of inosine monophosphate dehydrogenase via modular approach: targeting the pyrophosphate binding sub-domain” (Bioorg Med Chem, 2011)
